{
  "source": "patent US7094593B1",
  "about": "“Method for improving the function of heterologous G protein-coupled receptors” (priority 1998, dated 2006)",
  "key": {"[1]": {"target": "wild type human alpha2A adrenergic receptor (Homo sapiens, UniProt P08913)", "sequence (P08913 whole entry)": "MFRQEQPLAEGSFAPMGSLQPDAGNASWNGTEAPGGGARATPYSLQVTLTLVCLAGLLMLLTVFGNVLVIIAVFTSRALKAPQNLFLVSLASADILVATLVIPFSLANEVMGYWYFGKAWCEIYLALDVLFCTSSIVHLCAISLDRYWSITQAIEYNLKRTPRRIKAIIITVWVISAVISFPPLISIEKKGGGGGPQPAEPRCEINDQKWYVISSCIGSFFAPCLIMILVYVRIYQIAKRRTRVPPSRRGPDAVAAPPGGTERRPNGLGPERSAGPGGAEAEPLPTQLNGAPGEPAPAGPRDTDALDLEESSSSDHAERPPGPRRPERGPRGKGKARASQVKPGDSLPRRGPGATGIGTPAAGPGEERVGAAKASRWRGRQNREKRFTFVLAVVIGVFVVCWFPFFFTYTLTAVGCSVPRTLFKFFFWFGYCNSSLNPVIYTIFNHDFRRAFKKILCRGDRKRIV", "conditions": "yeast cells containing wild type receptor, 18 hours", "description": "(§2) Yeast cells containing the wild type IC3Δ human alpha2A adrenergic receptor were assayed in liquid culture using the alpha adrenergic receptor full agonist UK14304 (RBI) and partial agonist clonidine."}, "[2]": {"target": "IC3Δ human alpha2A adrenergic receptor (Homo sapiens, UniProt P08913, DEL273-347)", "sequence (P08913 with tags, fused parts or gaps DEL273-347 limits assumed)": "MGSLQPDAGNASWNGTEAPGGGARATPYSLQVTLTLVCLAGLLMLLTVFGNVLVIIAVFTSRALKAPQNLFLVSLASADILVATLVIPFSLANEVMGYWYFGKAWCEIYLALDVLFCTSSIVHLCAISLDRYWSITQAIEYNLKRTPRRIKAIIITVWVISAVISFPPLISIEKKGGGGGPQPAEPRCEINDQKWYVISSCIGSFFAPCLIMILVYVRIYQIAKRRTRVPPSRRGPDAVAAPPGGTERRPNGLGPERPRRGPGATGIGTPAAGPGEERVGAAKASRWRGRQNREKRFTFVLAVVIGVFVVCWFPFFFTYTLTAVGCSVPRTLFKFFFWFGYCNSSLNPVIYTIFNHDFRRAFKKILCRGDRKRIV", "description": "as §2"}, "[3]": {"target": "T1, wild type D. melanogaster MAR (DMAR) (Drosophila melanogaster, UniProt P16395)", "T1 construct": "expressed in transfected cells; host or cells: Saccharomyces cerevisiae MPY578fc, plasmid pMP3", "T1 sequence (P16395 1-805)": "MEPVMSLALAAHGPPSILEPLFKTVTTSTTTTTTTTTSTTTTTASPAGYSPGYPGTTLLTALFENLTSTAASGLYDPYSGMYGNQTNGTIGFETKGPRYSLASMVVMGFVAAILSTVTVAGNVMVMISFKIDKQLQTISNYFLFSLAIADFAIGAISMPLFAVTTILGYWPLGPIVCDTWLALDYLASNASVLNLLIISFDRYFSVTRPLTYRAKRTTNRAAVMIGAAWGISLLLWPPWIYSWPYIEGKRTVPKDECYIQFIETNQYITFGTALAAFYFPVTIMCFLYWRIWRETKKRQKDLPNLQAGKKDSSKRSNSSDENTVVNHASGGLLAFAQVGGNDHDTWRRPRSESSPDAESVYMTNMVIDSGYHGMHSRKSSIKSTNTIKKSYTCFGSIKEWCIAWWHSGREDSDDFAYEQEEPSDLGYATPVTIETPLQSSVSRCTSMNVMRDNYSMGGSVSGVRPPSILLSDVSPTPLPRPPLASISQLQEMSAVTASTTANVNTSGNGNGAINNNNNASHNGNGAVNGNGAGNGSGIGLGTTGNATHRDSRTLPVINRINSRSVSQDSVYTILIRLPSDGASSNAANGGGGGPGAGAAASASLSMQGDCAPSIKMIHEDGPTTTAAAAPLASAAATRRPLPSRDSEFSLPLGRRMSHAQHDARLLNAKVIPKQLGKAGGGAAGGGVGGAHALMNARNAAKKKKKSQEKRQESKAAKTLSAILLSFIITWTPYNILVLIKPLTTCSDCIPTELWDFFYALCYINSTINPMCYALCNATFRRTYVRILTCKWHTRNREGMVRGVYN", "experiment": "Liquid culture yeast growth assay, wild type DMAR", "format": "cell-based", "conditions": "yeast cells containing wild type DMAR", "method": "(§1) In order to construct the IC3 replacement, PCR fragments encoding three domains were prepared by standard means. Fragment 1 consisted of the amino terminal coding portion of the Drosophila MAR up to an Agel site within the 5th TMD, amplified by PCR using oligonucleotides (AAA AGATCT AAA ATG […]) (SEQ ID NO: 7) and (CCA GTA GAG GAA […] AGGCCT AAGTAGAAGGCGGCCAGTGC) (SEQ ID NO: 8). The second fragment of the DMAR was composed of carboxy terminal coding sequences starting with a PmII site in the 6th TMD, amplified by PCR using oligonucleotides ([…]) (SEQ ID NO: 9) and (AAA CTCGAG […]) (SEQ ID NO: 10). The M3 MAR IC3Δ domain was amplified as an Agel-PmII fragment with coding sequence in frame with fragments 1 and 2, described in Example 1. These fragments were assembled in plasmid p426GPD to place the mutated DMAR under control of the GPD promoter. The wild type DMAR was cloned into the expression vector, pMP3, described in U.S. Pat. No. 5,691,188."}, "DMAR-M3 MAR IC3Δ": {"target": "T2, DMAR-M3 MAR IC3Δ (Drosophila melanogaster, UniProt P16395, C285T/D301E/F279L/F286I/K296E/N304G/P303A/Q299T/R293K/W292Y)", "T2 construct": "expressed in transfected cells; host or cells: Saccharomyces cerevisiae MPY578fc, plasmid p426GPD", "T2 sequence (P16395 other isoform, or with tags, fused parts or gaps F279L/C285T/F286I/W292Y/R293K/K296E/Q299T/D301E/P303A/N304G)": "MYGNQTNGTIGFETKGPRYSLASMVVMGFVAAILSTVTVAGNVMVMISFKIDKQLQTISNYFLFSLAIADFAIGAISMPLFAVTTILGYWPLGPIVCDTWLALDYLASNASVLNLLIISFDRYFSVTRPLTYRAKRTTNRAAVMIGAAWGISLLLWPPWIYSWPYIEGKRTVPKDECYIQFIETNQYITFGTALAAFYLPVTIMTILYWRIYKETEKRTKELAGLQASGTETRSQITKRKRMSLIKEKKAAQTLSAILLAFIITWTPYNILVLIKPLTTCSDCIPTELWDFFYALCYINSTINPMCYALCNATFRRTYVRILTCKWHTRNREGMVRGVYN", "experiment": "Liquid culture yeast growth assay, mutated DMAR containing the M3 MAR IC3Δ", "format": "cell-based, D. melanogaster", "conditions": "yeast cells containing mutated DMAR with M3 MAR IC3Δ", "method": "as §1"}, "Ce 5HTR-M3 MAR IC3Δ": {"test_system": "Ce 5HTR-M3 MAR IC3Δ", "experiment": "Liquid culture yeast growth assay, Ce 5HTR containing the M3 MAR IC3Δ", "format": "cell-based, C. elegans", "conditions": "for antagonist effect on growth inducing effect of serotonin: antagonist at 10 μM", "method": "In order to construct the IC3 replacement, PCR fragments encoding three domains were prepared by standard means. Fragment 1 contains the amino terminal-coding portion of the Ce 5HTR to the intracellular interface of the 5th TMD, amplified by PCR using oligonucleotides ([…]) (SEQ ID NO: 27) and ([…] […] […]) (SEQ ID NO: 28). The second fragment of the Ce 5HTR contains carboxy-terminal coding sequences starting proximal to the intracellular interface of the 6th TMD, amplified by PCR using oligonucleotides ([…]) (SEQ ID NO: 29) and ([…] […] […]) (SEQ ID NO: 30). The M3 MAR IC3Δ domain was amplified by PCR as described in Example 1.\nThese fragments were isolated, mixed and amplified by PCR with 5′ ([…]) (SEQ ID NO: 27) and 3′ ([…]) ([…]) oligonucleotides. The resulting fragment was digested with appropriate restriction endonucleases and assembled in p426GPD to place the mutated Ce 5HTR under control of the GPD promoter.\nYeast cells containing the Ce 5HTR were assayed in liquid culture. […] In similar reactions, the serotonergic antagonists lisuride and mianserin were added to each well at 10 μM. […] Ki values were determined using the equation of Cheng and Pruesoff. (Y Cheng et al. (1973))."}},
  "data": [
    {"molecule": "Brc1c(NC2=NCCN2)ccc2nccnc12", "note": "[UK14304]", "values": [
      {"measurement": "yeast cell growth response", "setting": "[1]", "value": "dose-dependent growth response"},
      {"measurement": "yeast cell growth response", "setting": "[2]", "value": "dose-dependent growth response"}
    ]},
    {"molecule": "C[N+](C)(C)CCOC(N)=O", "note": "[carbachol]", "values": [
      {"measurement": "agonist-dependent yeast cell growth", "setting": "[3]", "value": "lack of agonist-dependent yeast cell growth"},
      {"measurement": "agonist-dependent yeast cell growth", "setting": "DMAR-M3 MAR IC3Δ", "value": "agonist-dependent growth response"}
    ]},
    {"molecule": "CCN(CC)C(=O)N[C@H]1C=C2c3cccc4[nH]cc(c34)C[C@H]2N(C)C1", "note": "[lisuride]", "values": [
      {"measurement": "antagonist effect on growth inducing effect of serotonin", "setting": "Ce 5HTR-M3 MAR IC3Δ", "value": "blocked"}
    ]},
    {"molecule": "CN1CCN2c3ccccc3Cc3ccccc3C2C1", "note": "(stereo not shown) [mianserin]", "values": [
      {"measurement": "antagonist effect on growth inducing effect of serotonin", "setting": "Ce 5HTR-M3 MAR IC3Δ", "value": "blocked"}
    ]},
    {"molecule": "NCCc1c[nH]c2ccc(O)cc12", "note": "[serotonin]", "values": [
      {"measurement": "agonist-dependent yeast cell growth", "setting": "Ce 5HTR-M3 MAR IC3Δ; yeast cells containing Ce 5HTR-M3 MAR IC3Δ, 18 hours", "value": "agonist-dependent growth response"}
    ]}
  ]
}
